For test [1], the system named is human renal carcinoma cell line 786-0. Nature of the test: Anti-proliferative effect on renal cell carcinoma 786-0 cell line (MTT assay). In kind it is cell-based. The note with it: Homo sapiens, 786-0 cells, incubation 48 to 96 hours, serum free medium or 2% FCS. The procedure:
B-1. Determination of Anti-proliferative Effects of Renal Cell Carcinoma 786-0 Cell Line:
A defined number of cells of the human renal carcinoma cell line 786-0 were cultured in a 96 well micro titer plate in rich medium (2500 or 7.000 cells/well) and then incubated over night at 37° C./5% CO2. After 18 hours the seed medium was replaced by a serum free medium or medium with 2% FCS. The treatment began with measuring out the respective test substances in varying concentrations (10^−5 M to 10^−14 M). Incubation times of between 48 hours and 96 hours were chosen. The proliferation was determined by means of the MTT assay (ATCC, Manassas, Va., USA, catalogue no. 30-1010K). After completion of incubation period the MTT reagent was incubated with the cells for 4 hours before lysis occurred over night by measuring out the detergent. The created stain was detected at 570 nm. The proliferation of the cells, which were treated identically to the other cells but without the test substance was defined as the 100% value. The data obtained from this test represent triple determinations and at least two experiments had been carried out independently of each other.
Background: Formazan colour is commonly taken as a measure of viable cells.

The next test has as its system HT-29 wt cell line. In words: Anti-proliferative effect on HT-29 wt cell line (MTT assay). In kind it is cell-based, human. To be noted: Homo sapiens, HT-29 wt cells, incubation 48 to 96 hours, medium with 10% FCS. The procedure: B-2. Determination of Anti-proliferative Effects of HT-29 wt Cell Line:
After 18 hours the seed medium was replaced by a fresh medium with 10% FCS. The treatment started with measuring out the respective test substance. The dose-response curves were determined of the investigative substances with a concentration of 10^−5 M to 10^−14 M (1:10 dilutions). Incubation times of between 48 hours and 96 hours were chosen. The proliferation was detected by means of the MTT assay (ATCC, Manassas, Va., USA, catalogue no. 30-1010K). After completion of selected incubation period the MTT reagent was incubated with the cells for 4 hours before lysis occurred over night by measuring out the detergent. The created stain was detected at 570 nm. The proliferation of the cells, which were treated identically to the other cells but without the test substance, was defined as the 100% value. The data obtained from this test represent triple determinations and at least two experiments had been carried out independently of each other.

Square brackets hold non-standard residues; d marks the D form. Peptide text beside a SMILES is read from it. * marks the point of attachment. NMeVal(N-(CH2)3COOH) = CC(C)[C@@H](C(=O)*)N(C)CCCC(=O)O; Dolaproine = CO[C@@H]([C@@H]1CCCN1)[C@@H](C)C(=O)O; Dil = CC[C@H](C)[C@H](NC)[C@@H](CC(=O)O)OC; X3 = CC(C)[C@@H](C(=O)*)N(C)CCCCCC(=O)O; NMe(benzyl) = CN(Cc1ccccc1)*; X4 = C1C2CC3CC1CC(CO*)(C2)C3; X6 = C1C2CC3CC1CC(O*)(C2)C3; NHBn = c1ccc(CN*)cc1; OBn = c1ccc(CO*)cc1; OtBu = CC(C)(C)O*

By IC50 is commonly meant the concentration needed to halve the response being measured. High values mean lower potency, low ones higher potency.

On to `CC[C@H](C)[C@@H]([C@@H](CC(=O)N1CCC[C@H]1[C@H](OC)[C@@H](C)C(=O)N[C@H](COCc1ccc(C(=O)OC)cc1)Cc1ccccc1)OC)N(C)C(=O)[C@@H](NC(=O)[C@H](C(C)C)N(C)CCCC(=O)O)C(C)C` [Example 26, N-(3-carboxypropyl)-N-methyl-L-valyl-N-[(3R,4S,5S)-3-methoxy-1-{(2S)-2-[(1R,2R)-1-methoxy-3-{[(2S)-1-{[4-(methoxycarbonyl)benzyl]oxy}-3-phenylpropane-2-yl]amino}-2-methyl-3-oxopropyl]pyrrolidin-1-yl}-5-methyl-1-oxoheptan-4-yl]-N-methyl-L-valinamide], for which the IC50 in test [1] came out at 10 nM; in the test on HT-29 wt cell line, 1.5 nM.

Turning to `CC[C@H](C)[C@@H]([C@@H](CC(=O)N1CCC[C@H]1[C@H](OC)[C@@H](C)C(=O)N[C@@H](Cc1ccccc1)C(=O)N(C)Cc1ccccc1)OC)N(C)C(=O)[C@@H](NC(=O)[C@H](C(C)C)N(C)CCCC(=O)O)C(C)C` [Example 9, N-(3-carboxypropyl)-N-methyl-L-valyl-N-[(3R,4S,5S)-1-{(2S)-2-[(1R,2R)-3-({(2S)-1-[benzyl(methyl)amino]-1-oxo-3-phenylpropane-2-yl}amino)-1-methoxy-2-methyl-3-oxopropyl]pyrrolidin-1-yl}-3-methoxy-5-methyl-1-oxoheptan-4-yl]-N-methyl-L-valinamide] ({NMeVal(N-(CH2)3COOH)}-V[Dil][Dolaproine]F-{NMe(benzyl)}), the values for the IC50 (in test [1]; in the test with HT-29 wt cell line) were 53 nM and 4.4 nM, respectively. For `CC[C@H](C)[C@@H]([C@@H](CC(=O)N1CCC[C@H]1[C@H](OC)[C@@H](C)C(=O)N[C@H](COCc1ccccc1)Cc1ccccc1)OC)N(C)C(=O)[C@@H](NC(=O)[C@H](C(C)C)N(C)CCCC(=O)O)C(C)C` [Example 4, N-(3-carboxypropyl)-N-methyl-L-valyl-N-[(3R,4S,5S)-1-{(2S)-2-[(1R,2R)-3-{[(2S)-1-(benzyloxy)-3-phenylpropane-2-yl]amino}-1-methoxy-2-methyl-3-oxopropyl]pyrrolidin-1-yl}-3-methoxy-5-methyl-1-oxoheptan-4-yl]-N-methyl-L-valinamide], in that order: 0.8 nM and 0.1 nM. `CC[C@H](C)[C@@H]([C@@H](CC(=O)N1CCC[C@H]1[C@H](OC)[C@@H](C)C(=O)N[C@@H](Cc1ccccc1)C(=O)OC12CC3CC(CC(C3)C1)C2)OC)N(C)C(=O)[C@@H](NC(=O)[C@H](C(C)C)N(C)CCCC(=O)O)C(C)C` [Example 2, N-(3-carboxypropyl)-N-methyl-L-valyl-N-[(3R,4S,5S)-1-{(2S)-2-[(1R,2R)-3-{[(2S)-1-(adamantane-1-yloxyy)-1-oxo-3-phenylpropane-2-yl]amino}-1-methoxy-2-methyl-3-oxopropyl]pyrrolidin-1-yl}-3-methoxy-5-methyl-1-oxoheptan-4-yl]-N-methyl-L-valinamide] ({NMeVal(N-(CH2)3COOH)}-V[Dil][Dolaproine]F-X6) had an IC50 in test [1] of 2.2 nM. For the compound `CC[C@H](C)[C@@H]([C@@H](CC(=O)N1CCC[C@H]1[C@H](OC)[C@@H](C)C(=O)N[C@H](C(=O)NCc1ccccc1)[C@@H](C)O)OC)N(C)C(=O)[C@@H](NC(=O)[C@H](C(C)C)N(C)CCCC(=O)O)C(C)C` [Example 25, N-(3-carboxypropyl)-N-methyl-L-valyl-N-[(3R,4S,5S)-1-{(2S)-2-[(1R,2R)-3-{[(2S,3R)-1-(benzylamino)-3-hydroxy-1-oxobutane-2-yl]amino}-1-methoxy-2-methyl-3-oxopropyl]pyrrolidin-1-yl}-3-methoxy-5-methyl-1-oxoheptan-4-yl]-N-methyl-L-valinamide] ({NMeVal(N-(CH2)3COOH)}-V[Dil][Dolaproine]T-NHBn), the values for the IC50 (in test [1]; in the test on HT-29 wt cell line) were 164 nM and 1.5 nM, respectively. On to `CC[C@H](C)[C@@H]([C@@H](CC(=O)N1CCC[C@H]1[C@H](OC)[C@@H](C)C(=O)N[C@H](C(=O)OCc1ccccc1)[C@@H](C)c1ccccc1)OC)N(C)C(=O)[C@@H](NC(=O)[C@H](C(C)C)N(C)CCCC(=O)O)C(C)C` [Example 6, N-(3-carboxypropyl)-N-methyl-L-valyl-N-[(3R,4S,5S)-1-{(2S)-2-[(1R,2R)-3-{[(2S,3S)-1-(benzyloxy)-1-oxo-3-phenylbutane-2-yl]amino}-1-methoxy-2-methyl-3-oxopropyl]pyrrolidin-1-yl}-3-methoxy-5-methyl-1-oxoheptan-4-yl]-N-methyl-L-valinamide], for which the IC50 is 1.1 nM in test [1] and 0.4 nM in the test with HT-29 wt cell line. With `CC[C@H](C)[C@@H]([C@@H](CC(=O)N1CCC[C@H]1[C@H](OC)[C@@H](C)C(=O)N[C@@H](Cc1ccccc1)C(=O)OCC12CC3CC(CC(C3)C1)C2)OC)N(C)C(=O)[C@@H](NC(=O)[C@H](C(C)C)N(C)CCCC(=O)O)C(C)C` [Example 3, N-(3-carboxypropyl)-N-methyl-L-valyl-N-[(3R,4S,5S)-1-{(2S)-2-[(1R,2R)-3-{[(2S)-1-(adamantane-1-ylmethoxy)-1-oxo-3-phenylpropane-2-yl]amino}-1-methoxy-2-methyl-3-oxopropyl]pyrrolidin-1-yl}-3-methoxy-5-methyl-1-oxoheptan-4-yl]-N-methyl-L-valinamide] ({NMeVal(N-(CH2)3COOH)}-V[Dil][Dolaproine]F-X4), the IC50 in test [1] stood at 0.7 nM.

Compound `CC[C@H](C)[C@@H]([C@@H](CC(=O)N1CCC[C@H]1[C@H](OC)[C@@H](C)C(=O)N[C@@H](Cc1ccccc1)C(=O)NCc1ccccc1)OC)N(C)C(=O)[C@@H](NC(=O)[C@H](C(C)C)N(C)CCCC(=O)O)C(C)C` [Example 15, N-(3-carboxypropyl)-N-methyl-L-valyl-N-[(3R,4S,5S)-1-{(2S)-2-[(1R,2R)-3-{[(2S)-1-(benzylamino)-1-oxo-3-phenylpropan-2-yl]amino}-1-methoxy-2-methyl-3-oxopropyl]pyrrolidin-1-yl}-3-methoxy-5-methyl-1-oxoheptan-4-yl]-N-methyl-L-valinamide] ({NMeVal(N-(CH2)3COOH)}-V[Dil][Dolaproine]F-NHBn) returned an IC50 in test [1] of 0.9 nM.

Consider `CC[C@H](C)[C@@H]([C@@H](CC(=O)N1CCC[C@H]1[C@H](OC)[C@@H](C)C(=O)N[C@@H](Cc1c[nH]c2ccccc12)C(=O)NCc1ccccc1)OC)N(C)C(=O)[C@@H](NC(=O)[C@H](C(C)C)N(C)CCCCCC(=O)O)C(C)C` [Example 28, N-(5-carboxypentyl)-N-methyl-L-valyl-N-[(3R,4S,5S)-1-{(2S)-2-[(1R,2R)-3-{[(2S)-1-(benzylamino)-3-(1H-indol-3-yl)-1-oxopropane-2-yl]amino}-1-methoxy-2-methyl-3-oxopropyl]pyrrolidin-1-yl}-3-methoxy-5-methyl-1-oxoheptan-4-yl]-N-methyl-L-valinamide] (X3-V[Dil][Dolaproine]W-NHBn), for which the IC50 in the test with HT-29 wt cell line worked out at 1.3 nM. In test [1], `CC[C@H](C)[C@@H]([C@@H](CC(=O)N1CCC[C@H]1[C@H](OC)[C@@H](C)C(=O)N[C@@H](Cc1ccccc1)C(=O)OCc1ccccc1)OC)N(C)C(=O)[C@@H](NC(=O)[C@H](C(C)C)N(C)CCCC(=O)O)C(C)C` [Example 5, N-(3-carboxypropyl)-N-methyl-L-valyl-N-[(3R,4S,5S)-1-{(2S)-2-[(1R,2R)-3-{[(2S)-1-(benzyloxy)-1-oxo-3-phenylpropan-2-yl]amino}-1-methoxy-2-methyl-3-oxopropyl]pyrrolidin-1-yl}-3-methoxy-5-methyl-1-oxoheptan-4-yl]-N-methyl-L-valinamide] ({NMeVal(N-(CH2)3COOH)}-V[Dil][Dolaproine]F-OBn) displayed an IC50 of 0.2 nM. The same measure, in the same setting: with `CC[C@H](C)[C@@H]([C@@H](CC(=O)N1CCC[C@H]1[C@H](OC)[C@@H](C)C(=O)N[C@@H](Cc1ccccc1)C(=O)OC(C)(C)C)OC)N(C)C(=O)[C@@H](NC(=O)[C@H](C(C)C)N(C)CCCC(=O)O)C(C)C` [Example 20, N-(3-carboxypropyl)-N-methyl-L-valyl-N-[(3R,4S,5S)-1-{(2S)-2-[(1R,2R)-3-{[(2S)-1-tert.-butoxy-1-oxo-3-phenylpropane2-yl]amino}-1-methoxy-2-methyl-3-oxopropyl]pyrrolidin-1-yl}-3-methoxy-5-methyl-1-oxoheptan-4-yl]-N-methyl-L-valinamide] ({NMeVal(N-(CH2)3COOH)}-V[Dil][Dolaproine]F-OtBu) the figure was 0.3 nM; with `CC[C@H](C)[C@@H]([C@@H](CC(=O)N1CCC[C@H]1[C@H](OC)[C@@H](C)C(=O)N[C@@]1(C(=O)OCc2ccccc2)C[C@@H]1c1ccccc1)OC)N(C)C(=O)[C@@H](NC(=O)[C@H](C(C)C)N(C)CCCC(=O)O)C(C)C` [Example 10, N-(3-carboxypropyl)-N-methyl-L-valyl-N-[(3R,4S,5S)-1-{(2S)-2-[(1R,2R)-3-({(1S,2R)-1-[(benzyloxy)carbonyl]-2-phenylcyclopropyl}amino)-1-methoxy-2-methyl-3-oxopropyl]pyrrolidin-1-yl}-3-methoxy-5-methyl-1-oxoheptan-4-yl]-N-methyl-L-valinamide], 81 nM.

For the origin of these results see US8987209B2, “N-carboxyalkyl-auristatin and the use thereof” (Seattle Genetics, Inc., priority 2010, dated 2015).
